Results: patent publication US20040171073A1, “Compounds for modulation of cholesterol transport” (Massachusetts Institute of Technology, priority 2002, published 2004)

What follows are compounds tested against T1, murine SR-BI (Mus musculus, UniProt Q61009) (assay: Uptake of DiI from DiI-HDL by ldlA[mSR-BI] cells (high throughput screen and concentration dependence)). Settings: Test 1.
T1 construct: expressed in transfected cells; host or cells: ldlA-7 (LDL receptor deficient Chinese hamster ovary cells)
T1 sequence (Q61009 1-509): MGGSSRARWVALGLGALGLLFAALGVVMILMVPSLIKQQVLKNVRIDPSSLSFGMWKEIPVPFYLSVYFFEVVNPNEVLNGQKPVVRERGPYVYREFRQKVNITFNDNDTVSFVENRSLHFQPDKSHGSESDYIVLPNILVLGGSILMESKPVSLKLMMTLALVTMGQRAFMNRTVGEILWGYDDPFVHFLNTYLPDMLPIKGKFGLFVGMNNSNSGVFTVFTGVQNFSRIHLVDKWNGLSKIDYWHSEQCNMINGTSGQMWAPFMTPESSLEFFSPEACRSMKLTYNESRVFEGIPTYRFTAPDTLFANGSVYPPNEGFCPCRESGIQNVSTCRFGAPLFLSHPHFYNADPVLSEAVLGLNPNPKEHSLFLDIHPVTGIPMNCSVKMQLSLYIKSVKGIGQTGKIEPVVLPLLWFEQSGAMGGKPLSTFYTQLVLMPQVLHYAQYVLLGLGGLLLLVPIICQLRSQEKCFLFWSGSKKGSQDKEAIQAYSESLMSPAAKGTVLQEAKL
Assay type: cell-based
For `Cc1[nH]c2ccccc2c1-c1c2ccccc2nc2ccccc12` [MIT 9952-183], the “ENDOHDL Test 1” value was 0.59.
In the case of `O=C1Nc2ccc([N+](=O)[O-])cc2/C1=N/NC(=O)C1C2CCCCC21` (stereo not shown) [MIT 9952-184], the “ENDOHDL Test 1” value is reported as 0.6.
In the case of `CCCCCCC1CCC/C1=N\NC(N)=S` (stereo not shown) [MIT 9952-185], the “ENDOHDL Test 1” value is reported as 0.53.
`O=C(CNS(=O)(=O)c1ccc([N+](=O)[O-])cc1)N/N=C/c1ccccc1` [MIT 9952-186] was tested, and the “ENDOHDL Test 1” value was 0.5.
`CCOC(=O)c1c(/N=C/c2ccccc2[N+](=O)[O-])sc2c1CCCC2` [MIT 9952-187] was tested, and the “ENDOHDL Test 1” value was 0.33.
For `O=C(Nc1cc2c(cc1C(=O)c1ccccc1)OCCO2)c1ccc(Br)cc1` [MIT 9952-188], the “ENDOHDL Test 1” value was 0.61.
`O=C(Nc1cccc(C(F)(F)F)c1)c1cccc(C(=O)Nc2cccc(C(F)(F)F)c2)n1` [MIT 9952-189] was tested, and the “ENDOHDL Test 1” value was 0.56.
In the case of `O=C(O)c1ccc2c(c1)C(=O)N(c1ccc(C(=O)OCC(=O)c3ccccc3)cc1)C2=O` [MIT 9952-190], the “ENDOHDL Test 1” value is reported as 1.47.
In the case of `C#CCOC(=O)CCCC(=O)Nc1ccccc1[N+](=O)[O-]` [MIT 9952-191], the “ENDOHDL Test 1” value is reported as 1.27.
With `CCN(CC)S(=O)(=O)c1cc(C(=O)Nc2ccc(Br)cc2)ccc1Br` [MIT 9952-192] the “ENDOHDL Test 1” value was 0.57.
In the case of `Cn1cc(C=O)c2cc(Br)ccc21` [MIT 9952-193], the “ENDOHDL Test 1” value is reported as 0.66.
In the case of `Cc1cccc(C(=O)N/N=C/c2ccccc2Cl)c1` [MIT 9952-194], the “ENDOHDL Test 1” value is reported as 0.76.
With `O=C(O/N=C/c1ccc([N+](=O)[O-])o1)c1ccccc1` [MIT 9952-195] the “ENDOHDL Test 1” value was 1.22.
For `CCCCC1(OC(=O)Nc2ccc(Cl)cc2)CCCCC1` [MIT 9952-196], the “ENDOHDL Test 1” value was 0.63.
For `CN1CCc2c(c3ccccc3n2-c2ccccc2)C1.Cl` [MIT 9952-197], the “ENDOHDL Test 1” value was 0.58.
With `CO/C(=N\C(NC(=S)Nc1ccc(Br)cc1)C(Cl)(Cl)Cl)c1ccc(C)cc1` (stereo not shown) [MIT 9952-198] the “ENDOHDL Test 1” value was 0.67.
In the case of `O=C(N/N=C\c1cccn1-c1ccc([N+](=O)[O-])cc1)c1ccccc1` [MIT 9952-199], the “ENDOHDL Test 1” value is reported as 0.52.
`O=[N+]([O-])c1ccc(N/N=C(/CS(=O)(=O)c2ccccc2)c2ccccc2)c([N+](=O)[O-])c1` [MIT 9952-200] was tested, and the “ENDOHDL Test 1” value was 0.73.
`Cc1ccc(NC(=S)NC(NC(=O)c2ccccc2Cl)C(Cl)(Cl)Cl)cc1` (stereo not shown) [MIT 9952-201] was tested, and the “ENDOHDL Test 1” value was 0.69.
`O=C(O)C(Cc1ccccc1)N1C(=O)CSC1=S` (stereo not shown) [MIT 9952-202] was tested, and the “ENDOHDL Test 1” value was 1.23.
In the case of `CO/C(=N\C(NC(=S)Nc1ccccc1)C(Cl)(Cl)Cl)c1ccc(C)cc1` (stereo not shown) [MIT 9952-203], the “ENDOHDL Test 1” value is reported as 0.73.
`NS(=O)(=O)c1ccc(N=N/C(=N/Nc2ccc(S(N)(=O)=O)cc2)c2ccccc2)cc1` [MIT 9952-204] was tested, and the “ENDOHDL Test 1” value was 0.55.
In the case of `COc1ccc2[nH]cc(CCN3CCOC3=O)c2c1` [MIT 9952-205], the “ENDOHDL Test 1” value is reported as 1.08.
In the case of `COc1cc2c(-c3ccccc3)c(C)oc2cc1/C=N/NC(N)=S` [MIT 9952-206], the “ENDOHDL Test 1” value is reported as 0.56.
With `Cc1ccc(N2SC(NS(=O)(=O)c3ccc(C)cc3)N=C2c2ccccc2)cc1` (stereo not shown) [MIT 9952-207] the “ENDOHDL Test 1” value was 1.28.
In the case of `Nc1ccc(C(=O)Nc2ccc(-c3nc4ccc(NC(=O)c5ccc(N)cc5)c(Cl)c4[nH]3)cc2Cl)cc1` [MIT 9952-208], the “ENDOHDL Test 1” value is reported as 0.57.

Same assay, conditions: Test 2
`Cc1[nH]c2ccccc2c1-c1c2ccccc2nc2ccccc12` [MIT 9952-183] was tested, and the “ENDOHDL Test 2” value was 0.65.
In the case of `O=C1Nc2ccc([N+](=O)[O-])cc2/C1=N/NC(=O)C1C2CCCCC21` (stereo not shown) [MIT 9952-184], the “ENDOHDL Test 2” value is reported as 0.58.
With `CCCCCCC1CCC/C1=N\NC(N)=S` (stereo not shown) [MIT 9952-185] the “ENDOHDL Test 2” value was 0.46.
`O=C(CNS(=O)(=O)c1ccc([N+](=O)[O-])cc1)N/N=C/c1ccccc1` [MIT 9952-186] was tested, and the “ENDOHDL Test 2” value was 0.5.
`CCOC(=O)c1c(/N=C/c2ccccc2[N+](=O)[O-])sc2c1CCCC2` [MIT 9952-187] was tested, and the “ENDOHDL Test 2” value was 0.46.
In the case of `O=C(Nc1cc2c(cc1C(=O)c1ccccc1)OCCO2)c1ccc(Br)cc1` [MIT 9952-188], the “ENDOHDL Test 2” value is reported as 0.58.
For `O=C(Nc1cccc(C(F)(F)F)c1)c1cccc(C(=O)Nc2cccc(C(F)(F)F)c2)n1` [MIT 9952-189], the “ENDOHDL Test 2” value was 0.58.
`O=C(O)c1ccc2c(c1)C(=O)N(c1ccc(C(=O)OCC(=O)c3ccccc3)cc1)C2=O` [MIT 9952-190] was tested, and the “ENDOHDL Test 2” value was 1.35.
In the case of `C#CCOC(=O)CCCC(=O)Nc1ccccc1[N+](=O)[O-]` [MIT 9952-191], the “ENDOHDL Test 2” value is reported as 1.98.
For `CCN(CC)S(=O)(=O)c1cc(C(=O)Nc2ccc(Br)cc2)ccc1Br` [MIT 9952-192], the “ENDOHDL Test 2” value was 0.52.
For `Cn1cc(C=O)c2cc(Br)ccc21` [MIT 9952-193], the “ENDOHDL Test 2” value was 0.69.
For `Cc1cccc(C(=O)N/N=C/c2ccccc2Cl)c1` [MIT 9952-194], the “ENDOHDL Test 2” value was 0.46.
In the case of `O=C(O/N=C/c1ccc([N+](=O)[O-])o1)c1ccccc1` [MIT 9952-195], the “ENDOHDL Test 2” value is reported as 1.35.
For `CCCCC1(OC(=O)Nc2ccc(Cl)cc2)CCCCC1` [MIT 9952-196], the “ENDOHDL Test 2” value was 0.6.
`CN1CCc2c(c3ccccc3n2-c2ccccc2)C1.Cl` [MIT 9952-197] was tested, and the “ENDOHDL Test 2” value was 0.71.
`CO/C(=N\C(NC(=S)Nc1ccc(Br)cc1)C(Cl)(Cl)Cl)c1ccc(C)cc1` (stereo not shown) [MIT 9952-198] was tested, and the “ENDOHDL Test 2” value was 0.64.
`O=C(N/N=C\c1cccn1-c1ccc([N+](=O)[O-])cc1)c1ccccc1` [MIT 9952-199] was tested, and the “ENDOHDL Test 2” value was 0.46.
`O=[N+]([O-])c1ccc(N/N=C(/CS(=O)(=O)c2ccccc2)c2ccccc2)c([N+](=O)[O-])c1` [MIT 9952-200] was tested, and the “ENDOHDL Test 2” value was 0.8.
With `Cc1ccc(NC(=S)NC(NC(=O)c2ccccc2Cl)C(Cl)(Cl)Cl)cc1` (stereo not shown) [MIT 9952-201] the “ENDOHDL Test 2” value was 0.67.
With `O=C(O)C(Cc1ccccc1)N1C(=O)CSC1=S` (stereo not shown) [MIT 9952-202] the “ENDOHDL Test 2” value was 1.11.
`CO/C(=N\C(NC(=S)Nc1ccccc1)C(Cl)(Cl)Cl)c1ccc(C)cc1` (stereo not shown) [MIT 9952-203] was tested, and the “ENDOHDL Test 2” value was 0.7.
For `NS(=O)(=O)c1ccc(N=N/C(=N/Nc2ccc(S(N)(=O)=O)cc2)c2ccccc2)cc1` [MIT 9952-204], the “ENDOHDL Test 2” value was 0.62.
`COc1ccc2[nH]cc(CCN3CCOC3=O)c2c1` [MIT 9952-205] was tested, and the “ENDOHDL Test 2” value was 1.0.
In the case of `COc1cc2c(-c3ccccc3)c(C)oc2cc1/C=N/NC(N)=S` [MIT 9952-206], the “ENDOHDL Test 2” value is reported as 0.52.
For `Cc1ccc(N2SC(NS(=O)(=O)c3ccc(C)cc3)N=C2c2ccccc2)cc1` (stereo not shown) [MIT 9952-207], the “ENDOHDL Test 2” value was 1.19.
With `Nc1ccc(C(=O)Nc2ccc(-c3nc4ccc(NC(=O)c5ccc(N)cc5)c(Cl)c4[nH]3)cc2Cl)cc1` [MIT 9952-208] the “ENDOHDL Test 2” value was 0.55.
